Results: ChEMBL document CHEMBL1131955, “Solid-phase synthesis of novel inhibitors of farnesyl transferase” (Bioorg Med Chem Lett, 1999)

Columns and labels:
[1] = molecular target: geranylgeranyltransferase type-I (Rattus norvegicus, UniProt P53610+Q04631); assay: In vitro inhibition of rat brain cytosol Geranylgeranyl transferase type I
[2] = molecular target: Protein farnesyltransferase (Rattus norvegicus, UniProt Q02293+Q04631); assay: In vitro inhibition of rat brain cytosol farnesyl transferase

IC50 [1] [µM] | IC50 [2] [µM] | SMILES
12.5 | 6.3 | CC(C)=CCC/C(C)=C/CC/C(C)=C/COc1c(F)c(O)c([N+](=O)[O-])c(F)c1F
85 | 120 | C=C(C)C1CC=C(COc2c(F)c(O)c([N+](=O)[O-])c(F)c2F)CC1 (centres undefined)
> 200 | 200 | O=[N+]([O-])c1c(O)c(F)c(OCc2ccc(-c3ccccc3)cc2)c(F)c1F
58 | > 200 | O=[N+]([O-])c1c(O)c(F)c(OCc2ccccc2)c(F)c1F
> 100 | > 100 | CCCCCCCCCCCCOc1c(F)c(O)c([N+](=O)[O-])c(F)c1F
> 200 | 200 | O=[N+]([O-])c1c(O)c(F)c(OCc2ccc3ccccc3c2)c(F)c1F
> 200 | > 200 | C=CCOc1c(F)c(O)c([N+](=O)[O-])c(F)c1F
